Our source for the Log 1/K values is ChEMBL document CHEMBL1127742, “Compass: predicting biological activities from molecular surface properties. Performance comparisons on a steroid benchmark” (J Med Chem, 1994).

The structures appear in SMILES notation.

This assay concerns the target T1, Sex hormone-binding globulin (Homo sapiens) (UniProt P04278).
T1 sequence (whole entry): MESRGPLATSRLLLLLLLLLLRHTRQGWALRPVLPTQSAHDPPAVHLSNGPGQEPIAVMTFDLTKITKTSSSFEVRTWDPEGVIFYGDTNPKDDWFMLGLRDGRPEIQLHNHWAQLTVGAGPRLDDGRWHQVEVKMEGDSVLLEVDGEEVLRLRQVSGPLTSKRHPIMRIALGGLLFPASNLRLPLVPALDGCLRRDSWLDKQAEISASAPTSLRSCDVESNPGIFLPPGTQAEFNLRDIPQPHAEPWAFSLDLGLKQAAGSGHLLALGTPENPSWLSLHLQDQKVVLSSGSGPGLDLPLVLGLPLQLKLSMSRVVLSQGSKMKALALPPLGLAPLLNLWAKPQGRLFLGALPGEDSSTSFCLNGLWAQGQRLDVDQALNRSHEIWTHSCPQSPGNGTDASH
Description: Binding affinity against transport protein testosterone binding globulin.
`C[C@]12CC[C@H](O)CC1=CCC1C2CC[C@]2(C)C(=O)CCC12` (stereo partly drawn) returned a Log 1/K of 7.82. The same measure for `C[C@]12CCC(=O)C=C1CC[C@@H]1[C@@H]2C(=O)C[C@@]2(C)[C@H]1CC[C@]2(O)C(=O)CO`: 6.43; for `C[C@]12CCC(=O)C[C@@H]1CC[C@@H]1[C@@H]2CC[C@]2(C)[C@@H](O)CC[C@@H]12`: 9.74; for `C[C@]12CC[C@@H](O)C[C@H]1CC[C@@H]1[C@@H]2CC[C@]2(C)C(=O)CC[C@@H]12`: 6.15. With `CC(=O)[C@@]1(O)CC[C@H]2[C@@H]3CCC4=CC(=O)CC[C@]4(C)[C@H]3CC[C@@]21C`, the Log 1/K came out at 7. For `CC(=O)[C@H]1CC[C@H]2[C@@H]3CCC4=CC(=O)CC[C@]4(C)[C@H]3CC[C@]12C`, the Log 1/K stood at 6.94. The figure for `C[C@]12CCC(=O)C=C1CC[C@@H]1[C@@H]2CC[C@]2(C)C(=O)CC[C@@H]12` is 7.46; for `C[C@]12CCC(=O)C=C1CC[C@@H]1[C@@H]2[C@@H](O)C[C@@]2(C)[C@H]1CC[C@]2(O)C(=O)CO` it is 6.2. The same measure for `C[C@]12CC[C@H]3[C@@H](CCC4=CC(=O)CC[C@@]43C)[C@@H]1CC[C@@H]2O`: 9.2. The figure for `CC(=O)[C@H]1CC[C@H]2[C@@H]3CC=C4C[C@@H](O)CC[C@]4(C)[C@H]3CC[C@]12C` is 7.15; for `C[C@]12CCC(=O)C=C1CCC1C3CC[C@H](C(=O)CO)[C@@]34C[C@H](OC4O)C12` (stereo partly drawn) it is 5.32; for `C[C@]12CC[C@H]3[C@@H](CCC4=CC(=O)CC[C@@]43C)[C@@H]1CC[C@@H]2C(=O)CO` it is 7.38.

For `C[C@]12CC[C@H](O)C[C@@H]1CC[C@@H]1[C@@H]2CC[C@]2(C)[C@@H](O)CC[C@@H]12`, the Log 1/K stood at 9.11.

The compound `C[C@]12C[C@H](O)[C@H]3[C@@H](CCC4=CC(=O)CC[C@@]43C)[C@@H]1CC[C@@H]2C(=O)CO` displayed a Log 1/K of 6.34. The figure for `C[C@]12CC[C@@H](O)C[C@@H]1CC[C@@H]1[C@@H]2CC[C@]2(C)C(=O)CC[C@@H]12` is 7.15; for `CC(=O)[C@@]1(O)CC[C@H]2[C@@H]3CC=C4C[C@@H](O)CC[C@]4(C)[C@H]3CC[C@@]21C` it is 6.36.

For the compound `C[C@]12CCC(=O)C=C1CC[C@@H]1[C@@H]2CC[C@@]2(C)[C@H]1CC[C@]2(O)C(=O)CO`, the Log 1/K was 7.2. The same measure for `C[C@]12CC[C@@H]3c4ccc(O)cc4CC[C@H]3[C@@H]1C[C@@H](O)[C@@H]2O`: 6.63.
